From publication PMC11996864, “A small-molecule inhibitor of BCL10-MALT1 interaction abrogates progression of diffuse large B cell lymphoma” (The Journal of Clinical Investigation, 2025) come the findings set out here.

One assay deals with T1, BCL10-MALT1 interaction (Homo sapiens, UniProt Q9UDY8).
T1 construct: GST-tagged recombinant human full-length MALT1 protein in solution; purchased Novus Biologicals H00010892-P01 (MALT1); NBP1-99064 (BCL10)
The experiment in a line: ELISA-based BCL10-MALT1 protein-protein interaction assay. The conditions noted are these: MALT1 preincubated 1 hour with compound; read-out: IC50, inhibition of MALT1 binding to immobilized BCL10. From the text:
A 96-well ELISA was employed, whereby His-tagged full-length BCL10 protein was immobilized in wells and exposed to GST-tagged recombinant human full-length MALT1 protein in solution, followed by detection with anti-MALT1 antibody. Details are provided in Supplemental Methods.
Plasmids. Plasmids for transfection were verified with Sanger Sequencing. Unless otherwise indicated, plasmids were made by subcloning cDNA fragments from constructs described in previous publications, as noted, and/or site directed mutagenesis. Plasmids in the pcDNA3 or pcDNA3.1 backbone include HA-MALT1(isoform B) (2), HA-MALT1(DD+Ig1-2) (aa 1- […]
MALT1(Ig1-2) V189R, HA-MALT1(Ig1-2) W203_Q205delinsAAA (Vector Builder), HA-MALT1(Ig1-2) H257_Q259delinsAAA (Vector Builder), HA-MALT1(Ig1-2) […]
ELISA-based protein-protein interaction assay. […] The plate was read at 450 nm using a spectrophotometer (Molecular Devices SpectraMax i3). […]
Cytokine ELISAs. Cytokines in cell culture supernatants were measured 20-24h after treatment with 0, 0.01, 0.03, 0.1, 0.3, 1, or 3 µM of compounds using the following ELISA kits according to the manufacturer’s instructions: Human IL-2 ELISA (BioLegend Cat# 431804), Human IL-6 ELISA (BioLegend Cat# 430504), and Human IL-10 ELISA (BioLegend Cat# 430604). […]
Mouse T-Activator CD3/C28. Supernatant was collected at 24 hours and mouse IL-2 levels were analyzed via ELISA (R&D Systems, Cat# DY402-05).
For orientation: ELISA stands for enzyme-linked immunosorbent assay.

Assay [1] deals with IκB phosphorylation in TMD8 cells. The experiment in a line: Constitutive IκB phosphorylation, Western blot. Type of assay: cell-based, human. The following applies: for IκB phosphorylation in TMD8 cells: result in words. The method, then:
Western blot analysis of RelB and N4BP1 cleavage was used to test the effect of small molecules on MALT1 protease activity. To this end, 3 million Jurkat T cells were pretreated with compounds for 24 hours in serum-free media, and then 5 μM MG-132 was added for 1 hour before stimulation with CD3/CD28 (Stemcell Technologies, catalog 10971), and lysed in RIPA buffer (Millipore, catalog 20-188) with protease and phosphatase inhibitor cocktail (Pierce, catalog 78446). IKKα/β phosphorylation and IκBα phosphorylation were used as measures of MALT1 scaffolding activity, while ERK1/2 phosphorylation was used as a control. Two million Jurkat T cells were treated with 1 μM M1i-124, 1 μM M1i-124d1, or DMSO in serum-free media for 16 hours, stimulated with CD3/CD28 for 0, 5, 10, or 20 minutes, and then immediately lysed in RIPA buffer with protease and phosphatase inhibitors. For experiments evaluating RelB cleavage and phosphorylation of IκBα in TMD8 cells, cells were treated with compounds for 24 hours in media containing 5% FBS. For RelB Western blot analysis, 5 μM MG-132 (Cell Signaling Technology, catalog 2194s) was added 4 hours before lysis in RIPA lysis buffer with protease/phosphatase inhibitors.
For orientation: In western blotting, separated proteins are transferred to a membrane and probed.

The structures appear in SMILES notation. “And” between values parts separate entries of the source, which are not always exact repeats. Equal values may be shown once.

T1 sequence (Q9UDY8 1-813 isoform Q9UDY8-2): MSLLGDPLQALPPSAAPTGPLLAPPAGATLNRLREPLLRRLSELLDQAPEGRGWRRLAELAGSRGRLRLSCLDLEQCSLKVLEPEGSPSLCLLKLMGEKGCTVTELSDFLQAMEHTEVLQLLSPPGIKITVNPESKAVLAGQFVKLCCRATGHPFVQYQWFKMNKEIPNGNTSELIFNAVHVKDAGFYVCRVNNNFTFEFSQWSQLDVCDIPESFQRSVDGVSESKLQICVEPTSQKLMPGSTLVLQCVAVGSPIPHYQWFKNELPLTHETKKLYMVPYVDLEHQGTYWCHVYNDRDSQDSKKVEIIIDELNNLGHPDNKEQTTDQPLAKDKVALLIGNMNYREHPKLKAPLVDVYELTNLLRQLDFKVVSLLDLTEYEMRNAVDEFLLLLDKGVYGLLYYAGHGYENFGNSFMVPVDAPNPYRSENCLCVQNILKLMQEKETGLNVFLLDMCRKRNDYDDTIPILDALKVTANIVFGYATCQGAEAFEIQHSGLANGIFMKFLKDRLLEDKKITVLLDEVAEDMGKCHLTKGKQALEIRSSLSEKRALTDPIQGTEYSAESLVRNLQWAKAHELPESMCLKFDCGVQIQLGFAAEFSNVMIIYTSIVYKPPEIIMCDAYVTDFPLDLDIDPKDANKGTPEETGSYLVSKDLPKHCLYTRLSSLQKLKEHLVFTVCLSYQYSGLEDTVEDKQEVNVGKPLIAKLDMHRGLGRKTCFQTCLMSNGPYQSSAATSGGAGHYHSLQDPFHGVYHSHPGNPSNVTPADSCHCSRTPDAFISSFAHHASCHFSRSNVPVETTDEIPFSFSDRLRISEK

Broadly, the IC50 is the concentration at which inhibition is half-maximal. `O=S(=O)(NCc1ccc2c(c1)OCO2)c1ccc(Cc2ccc(S(=O)(=O)NCc3ccc4c(c3)OCO4)cc2)cc1` [M1i-124]: the IC50 at BCL10-MALT1 interaction worked out at 16 µM. Besides, in assay [1], the “IκB phosphorylation in TMD8 cells” value is given as “marked reduction in IκB phosphorylation”.
On to `COc1ccc(CNS(=O)(=O)c2ccc(Cc3ccc(S(=O)(=O)NCc4ccc(OC)cc4)cc3)cc2)cc1` [M1i-124d1], for which, on BCL10-MALT1 interaction, the IC50 came to 34 µM. The “pIkB (normalized)” value in assay [1] (TMD8, 1 μM, 24 hours) was 0.264 and 0.345. Further, the “IκB phosphorylation in TMD8 cells” value in assay [1] is on record as “marked reduction in IκB phosphorylation”.
